Test results: patent publication US5010090A, “N-(butenyl substituted) azaheterocyclic carboxylic acids” (Novo Nordisk A/S., priority 1985, dated 1991)

Assays:
GABA uptake [1] = experiment: GABA-uptake inhibition in vitro, essentially as described by Fjalland, 3H-GABA as substrate; format: biochemical; details: two separate experiments, 3-5 concentrations, 3H-GABA substrate (25 mM [sic])
Protocol: GABA-uptake inhibition was measured essentially as described by Fjalland (Acta Pharmacol. et. Toxicol. (1978), 42, 73-76) using 25 mM of 3H-GABA as a substrate. The results obtained appears from Table 4, the obtained values being from two separate experiments using 3-5 different concentrations of test compound.

[2] = test system: DMCM induced clonic convulsions; experiment: Inhibition of DMCM induced convulsions in vivo; details: Mus musculus, ip, 0.5 h; 50% inhibition of DMCM induced clonic convulsions; i.p. 30 min before 15 mg/kg DMCM i.p.; female NMRI mice
Protocol: Inhibition of DMCM induced convulsions was measured on female NMRI mice (20±2 g).
The test compounds were injected intraperitoneally 30 min. before an intraperitoneal injection of 15 mg/kg of DMCM.

GABA uptake [3] = details: literature; cited from earlier work

SMILES	IC50 (GABA uptake [1])	ED50 [2]	inhibition of GABA uptake (GABA uptake [3])
CCOC(=O)[C@@H]1CCCN(CCC=C(c2sccc2C)c2sccc2C)C1 [Example 23, R-N-(4,4-bis(3-methylthien-2-yl)but-3-enyl)-nipecotic acid ethyl ester]	–	2.5 mg/kg	–
O=C(O)C1CCCN(CCC=C(c2ccccc2)c2ccccc2)C1 (stereo not shown) [Compound 10, N-(4,4-diphenyl-3-butenyl)nipecotic acid, reference compound]	353 nM	–	active inhibitors of GABA uptake
O=C(O)C1CCCN(CCC=C(c2sccc2Br)c2sccc2Br)C1 (stereo not shown) [Compound 8, N-(4,4-Bis(3-bromothien-2-yl)but-3-enyl)nipecotic acid]	96 nM	–	–
O=C(O)C1=CCCN(CCC=C(c2ccccc2)c2ccccc2)C1 [SK&F 100330A, N-(4,4-diphenyl-3-butenyl)guvacine]	–	–	active inhibitors of GABA uptake
Cc1ccsc1C(=CCCN1CCCC(C(=O)O)C1)c1sccc1C (stereo not shown) [Compound 5, N-(4,4-Bis(3-methylthien-2-yl)but-3-enyl)nipecotic acid]	87 nM	–	–
O=C(O)CC1CCN(CCC=C(c2ccccc2)c2ccccc2)C1 (stereo not drawn) [SK&F 100561, N-(4,4-diphenyl-3-butenyl)-β-homoproline]	–	–	active inhibitors of GABA uptake

More lines, in order of falling IC50 (GABA uptake [1]), values ahead:

IC50 (GABA uptake [1])	SMILES	ED50 [2]	inhibition of GABA uptake (GABA uptake [3])
465 nM	O=C(O)C1CCCN(CCC=C(c2ccccc2)c2cccs2)C1 (stereo not shown) [Compound 9, N-(4-phenyl-4-(2-thienyl)-3-butenyl)nipecotic acid, reference compound]	–	active inhibitors of GABA uptake
134 nM	Cc1ccsc1C(=CCCN1CCC=C(C(=O)O)C1)c1cccs1 [Compound 3, N-(4-(3-Methylthien-2yl)-4-(thien-2-yl)but-3-enyl)guvacine]	–	–
92 nM	Cc1ccsc1C(=CCCN1CCCC(C(=O)O)C1)c1cccs1 (stereo not shown) [Compound 1, N-(4-(3-Methylthien-2-yl)-4-(thien-2-yl)but-3-enyl)nipecotic acid]	–	–
74 nM	Cc1ccsc1C(=CCCN1CCC[C@@H](C(=O)O)C1)c1sccc1C [Compound 6, R-N-(4,4-bis(3-methylthien-2-yl)but-3-enyl)-nipecotic acid]	1.2 mg/kg	–
72 nM	Cc1ccsc1C(=CCCN1CCC(CC(=O)O)C1)c1cccs1 (stereo not shown) [Compound 4]	–	–
69 nM	Cc1ccsc1C(=CCCN1CCC(CC(=O)O)C1)c1sccc1C (stereo not drawn) [Compound 7, N-(4,4-Bis(3-methylthien-2-yl)but-3-enyl)-β-homoproline]	–	–
52 nM	Cn1cccc1C(=CCCN1CCCC(C(=O)O)C1)c1cccn1C (stereo not shown) [Compound 2, N-(4,4-Bis(N-methylpyrrol-2-yl)but-3-enyl)nipecotic acid]	–	–
